Where “and” joins values, the source holds several entries; their conditions need not be identical. Equal entries are not always repeated. Where two headings read alike, the source gives them in different places.
How the values were obtained:
[1] = tested on: DNA synthesis in HL-60 cells; test: Inhibition of [3H-methyl]dThd incorporation into DNA of HL-60 cells; type: cell-based, human; conditions: for inhibition of DNA synthesis, in words: HL-60, 0.03 mg/ml; for inhibition at 30 µg/mL: Homo sapiens, HL-60, at 0.03 mg/mL, read-out: % Inhibition of Precursor Incorporation, DNA; for % Inhibition of Precursor Incorporation, DNA: at 0.03 mg/mL
Protocol: (§1) For the precursor incorporation studies, each compound (in 0.3% dimethylsulfoxide) was preincubated with HL-60 cells (a human promyelocytic leukemic cell line) 2.2×10^6 /ml, for 15 min prior to the addition of the labeled precursor (obtained from ICN Radiochemicals, Irvine, Calif.) and then incubated for 30 min. The precursors used for incorporation into DNA, RNA and protein were [^3 H-methyl]dThd (1 μCi, 0.15 nmole/ml), [5-^3 H]Cyd (5 μCi, 0.23 nmol/ml), and [2,3,4,5-^3 H]L-Leu (0.5 μCi, 0.004 nmol/ml), respectively. Incorporation of radioactivity in the absence of a plant compound and in the presence of dimethylsulfoxide was used as a control.
Human promyelocytic cells (HL-60) were incubated with [^3 H-methyl]dTHDin the presence and absence of a plant alkaloid.

[2] = tested on: RNA synthesis in HL-60 cells; test: Inhibition of [5-3H]Cyd incorporation into RNA of HL-60 cells; type: cell-based, human; conditions: for inhibition at 30 µg/mL: Homo sapiens, HL-60, 0.5 h
Protocol: as §1, with “control. The control values for incorporation into DNA, RNA and protein were 8,500, 5,600 and 1,700 cpm/10^6 cells, respectively. The incubation conditions and the procedures for isolating DNA, RNA and protein fractions have been previously described (Chou, T. -C., et al., Cancer Res., 43:3074-3079 (1983)) .” for “control.”
(§2) HL-60 cells were incubated with [5-^3 H]Cyd or [2,3,4,5-^3 H]L-Leu in the presence and absence of alkaloids (0.03 mg/ml) in order to find the effects of the alkaloid on the incorporation of labeled precursors into RNA or protein. […] Over 90% of RNA and protein biosynthesis were inhibited by compounds 11, 16, 17, 22, 28, 29and 30 (Table 1). […] In most cases, the amount required to inhibit precursor incorporation into DNA was less than that to inhibit precursor incorporation into RNA or protein (i.e. DNA synthesis is inhibited most potently).

[3] = tested on: protein synthesis in HL-60 cells; test: Inhibition of [2,3,4,5-3H]L-Leu incorporation into protein of HL-60 cells; type: cell-based, human; conditions: for inhibition at 30 µg/mL: Homo sapiens; for % Inhibition of Precursor Incorporation, Protein: at 0.03 mg/mL
Protocol: as §1, with “control. The control values for incorporation into DNA, RNA and protein were 8,500, 5,600 and 1,700 cpm/10^6 cells, respectively. The incubation conditions and the procedures for isolating DNA, RNA and protein fractions have been previously described (Chou, T. -C., et al., Cancer Res., 43:3074-3079 (1983)) .” for “control.”
as §2

HL-60 cells = test: HL-60 cell growth inhibition, 72 h; type: cell-based, human; conditions: HL-60, 72 h; for IC50: read-out: Cell Growth Inhibition, IC50
Protocol: For growth inhibition studies, HL-60 cells (1.5×10^5 /ml) were grown in RPMI 1640 media (GIBCO, Grand Island, N.Y.) at 37° C. in humidified 5% CO2 for 72 h. Viable cells were determined using trypan blue exclusion and counted in a hemocytometer. The fractional inhibition for each compound concentration (0.0025-0.05 mg/ml in 0.1% dimethylsulfoxide) was analyzed with the median-effect plot using a computer program (Chou, T. -C and P. Talalay, Adv. Enzyme Regul., 22:27-55 (1984); Chou, J. and T. -C. thou, Dose-Effect analysis with microcomputers: Quantitation of ED50, LD50, synergism, antagonism, low-dose risk, receptor ligand binding and enzyme kinetics. A computer software disk for Apple II series or IBM-PC and manual. Elsevier Science Publishers, Elsevier-BioSoft, Cambridge, United Kingdom (1986)). The median-effect concentration (IC50) was determined automatically for three to five dose-effect levels. Cell growth in the absence of plant compound and in the presence of dimethylsulfoxide was used as a control. Dimethylsulfoxide alone inhibited cell growth 3.9%±1.5% during the 72 h incubation period. Those data with negative values represent activations.

L1210 leukemia = L1210 leukemia survival time evaluation in BDF1 mice; conditions: 12.5 mg/kg, day 1, QDX4 ip
L1210/0 cells = test: Cross-resistance studies: growth inhibition of doxorubicin-sensitive L1210/0 cells; type: cell-based; conditions: L1210/0 (doxorubicin sensitive)
L1210/Dx cells = test: Cross-resistance studies: growth inhibition of doxorubicin-resistant L1210/Dx cells; type: cell-based
[4] = at 0.03 mg/mL, read-out: % Inhibition of Precursor Incorporation, RNA
[5] = HL-60, at 0.03 mg/mL, read-out: % Inhibition of Precursor Incorporation, Protein

Cell Growth Inhibition, IC50 (HL-60 cells) [µg/mL]	IC50 (HL-60 cells) [µM]	Compound	inhibition of DNA synthesis, in words [1]	inhibition at 30 µg/mL [1] [%]	IC50 (HL-60 cells; Homo sapiens)	inhibition at 30 µg/mL [2, 4] [%]	inhibition at 30 µg/mL [3, 5] [%]	% Inhibition of Precursor Incorporation, DNA [1] [%]	% Inhibition of Precursor Incorporation, RNA ([2]; at 0.03 mg/mL) [%]	% Inhibition of Precursor Incorporation, Protein [3] [%]	other results
> 40	> 66.4	CC(C)=CCc1c(O)c(C2CC(C)(C)Oc3cc(O)c4c(=O)c5ccccc5[nH]c4c32)c(O)c2c(=O)c3ccccc3n(C)c12 (stereo not shown) [Compound 52, Glycobismine-A]	not active	–	–	–	–	-27.8	-57.4	-13.2	–
> 40	> 124	Furofoline-II [Compound 51]	not active	–	–	–	–	13.1	-46.3	19.5	–
18.7	47.1	Methoxymethyl-pyranofoline [Compound 49]	inhibited DNA synthesis significantly	–	–	–	–	85.3	70.1	87.3	–

Second part, the compound before the results:

Compound	Cell Growth Inhibition, IC50 (HL-60 cells) [µg/mL]	IC50 (HL-60 cells) [µM]	inhibition of DNA synthesis, in words [1]	inhibition at 30 µg/mL [1] [%]	IC50 (HL-60 cells; Homo sapiens)	inhibition at 30 µg/mL [2, 4] [%]	inhibition at 30 µg/mL [3, 5] [%]	% Inhibition of Precursor Incorporation, DNA [1] [%]	% Inhibition of Precursor Incorporation, RNA ([2]; at 0.03 mg/mL) [%]	% Inhibition of Precursor Incorporation, Protein [3] [%]	other results
CC(C)=CCc1c2c(c3c(c1O)c(=O)c1cccc(O)c1n3C)C=CC(C)(C)O2 [Compound 46, 11-Hydroxy-N-methyl severifoline]	–	–	significant activity	97.9	5.9 µg/mL and 15.1 µM	–	–	–	–	–	inhibition at 30 µg/mL ([2]; read-out: % Inhibition of Precursor Incorporation, RNA, at 0.03 mg/mL): 16.7%; inhibition at 30 µg/mL ([3]; HL-60, read-out: % Inhibition of Precursor Incorporation, Protein, at 0.03 mg/mL): 4.22%
CC(=O)Oc1cccc2c(=O)c3c(O)c(CC=C(C)C)c4c(c3n(C)c12)C=CC(C)(C)O4 [Compound 47, 11-O-Acetyl-N-methyl severifoline]	–	–	–	58.4	8.8 µg/mL and 20.3 µM	16.2	36.2	–	–	–	–
COc1c2c(c(O)c3c(=O)c4cccc(O)c4n(C)c13)C=CC(C)(C)O2 [Compound 48, Pyranofoline]	–	–	inhibited DNA synthesis significantly	98.8	3.1 µg/mL and 8.8 µM	97.2	96.4	–	–	–	cell growth inhibition, in words (HL-60 cells): better activity than that of acronycine
C=C(C)C1CCC2(C)CC1c1c(cc3c(c1O)c(=O)c1cccc(O)c1n3C)O2 (stereo not shown) [Compound 50, Cycloglyco-foline]	–	–	inhibited DNA synthesis significantly	98.7	5.8 µg/mL and 14.8 µM	55.7	92.1	–	–	–	inhibition of RNA biosynthesis, in words ([2]; HL-60, 0.03 mg/ml): The same results were obtained; inhibition of protein biosynthesis, in words ([3]; HL-60, 0.03 mg/ml): The same results were obtained; cell growth inhibition, in words (HL-60 cells): better activity than that of acronycine; Day 6 AWC (L1210 leukemia): +1.8 g; MST (L1210 leukemia): 8.5; N/T (nine day survivors/total mice) (L1210 leukemia): 0/2; % ILS (increase in lifespan) (L1210 leukemia; 25% or greater indicates activity): 21%; Survival Time, individual mice (L1210 leukemia; listed as Sk 32091): 8 and 9
COc1cccc2c1C(=O)c1c(O)c3c(c(O)c1C2=O)C[C@@](O)(C(=O)CO)C[C@@H]3O[C@H]1C[C@H](N)[C@H](O)[C@H](C)O1 [Doxorubicin]	–	–	–	–	–	–	–	–	–	–	IC50 (L1210/0 cells): 0.028 µM; (IC50) 0/(IC50) Dx (L1210/Dx cells; L1210/0 and L1210/Dx): 26.1; IC50 (L1210/Dx cells; Mus musculus, L1210/Dx (doxorubicin resistant)): 0.73 µM

From patent US5340818A, “Methods and compositions for inhibiting tumor cell growth” (priority 1993, dated 1994)
